Paper PMC6599521 (Biochemical pharmacology, 2019)
Like-named read-outs stand apart in the source and are kept apart here.

Experiments:
[1] = cited from earlier work
murine HCN1 channels = murine HCN1 channels (Mus musculus, UniProt O88704); assay type: cell-based; details: for ΔV1/2: paired experiments; for Inverse agonist behavior on HCN1 gating (in words): ligand alone; for IC50 (in words): no clear inflection in the concentration response curve, omitted from Figure 4B
HCN1 channels [2] = molecular target: T1, HCN1 channels (Mus musculus, UniProt O88704); assay: Gating model; assay type: cell-based, murine; details: for Fold Change of closed state association constant, phenol vs cyclohexanol / Fold Change of open state association constant, phenol vs cyclohexanol / Association constant to closed channels (KC, QC, JC) / Association constant to open channels (KO, QO, JO): common site model S=4; for Association constant to closed channels (KC, QC, JC) / Association constant to open channels (KO, QO, JO): constants and errors divided by 10^4
HCN1 channels [3] = molecular target: T1, HCN1 channels; assay: Additivity/competition of ligands with 3 μM DTB-P on HCN1 gating; assay type: cell-based, murine; details: increasing ligand concentrations plus 3 μM DTB-P
GABAA receptors = details: cited from earlier work
α3β glycine receptors = details: cited from earlier work
[4] = system: mouse peripheral nerve injury neuropathic pain models; details: cited from earlier work
[5] = system: G-protein coupled inwardly rectifying K+ channels (GIRKs); details: in vitro; cited from earlier work
[6] = system: chimeric mu opiate (μOR-Gqi5) receptors; details: up to 100 μM; cited from earlier work
[7] = Hill fit maximal shift of activation midpoint, mean ± SD

T1 sequence (O88704 whole entry): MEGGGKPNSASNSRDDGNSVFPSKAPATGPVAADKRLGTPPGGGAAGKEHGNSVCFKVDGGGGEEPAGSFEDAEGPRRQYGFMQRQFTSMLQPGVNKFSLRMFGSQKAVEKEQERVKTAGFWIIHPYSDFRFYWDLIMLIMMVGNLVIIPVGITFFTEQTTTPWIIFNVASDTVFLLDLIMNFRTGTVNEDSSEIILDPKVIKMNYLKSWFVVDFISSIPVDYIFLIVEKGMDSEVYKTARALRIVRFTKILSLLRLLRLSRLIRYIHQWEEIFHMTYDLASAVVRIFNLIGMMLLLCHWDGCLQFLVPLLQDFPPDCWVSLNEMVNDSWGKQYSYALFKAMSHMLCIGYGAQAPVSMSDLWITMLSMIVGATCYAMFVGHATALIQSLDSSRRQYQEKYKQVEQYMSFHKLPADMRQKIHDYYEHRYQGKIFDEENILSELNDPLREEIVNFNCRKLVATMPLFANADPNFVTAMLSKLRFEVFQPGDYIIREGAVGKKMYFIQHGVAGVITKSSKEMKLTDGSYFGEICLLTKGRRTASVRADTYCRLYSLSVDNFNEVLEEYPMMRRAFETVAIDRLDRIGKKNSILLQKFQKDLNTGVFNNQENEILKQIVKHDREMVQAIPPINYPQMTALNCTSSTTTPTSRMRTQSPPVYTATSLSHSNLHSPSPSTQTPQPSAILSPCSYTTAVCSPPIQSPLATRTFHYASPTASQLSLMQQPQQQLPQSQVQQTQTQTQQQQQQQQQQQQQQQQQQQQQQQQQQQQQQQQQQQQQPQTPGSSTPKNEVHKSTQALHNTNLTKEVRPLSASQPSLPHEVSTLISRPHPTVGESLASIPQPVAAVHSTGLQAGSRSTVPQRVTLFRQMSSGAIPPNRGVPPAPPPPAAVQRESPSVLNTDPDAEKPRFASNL
murine HCN1 channels, sequence (O88704 whole entry): as above

For `CCc1cccc(CC)c1O` [DE-P, 2,6-di-ethyl phenol], the Aqueous solubility limit ([1]; ref https://comptox.epa.gov/dashboard DTXSID5061401) is listed as ~ 10 mM, the “Maximal efficacy lower than the maximal effect of DIP-P and DTB-P” value (murine HCN1 channels) is listed as ~ 2 fold and the ΔV1/2 (murine HCN1 channels; 100 μM, n = 8) is listed as −21.6 mV. The ΔV1/2 (murine HCN1 channels; 300 μM, n = 9) was −21.2 mV, the ΔV1/2 max (murine HCN1 channels; [7]) was −22.1 ± 1.0 mV and the “h (Hill coefficient)” value (murine HCN1 channels; Hill fit, mean ± SD) was 1.95 ± 0.44. The IC50 (murine HCN1 channels; IC50, Hill fit of ΔV1/2 vs concentration, all parameters free, mean ± SD) was 25.1 ± 2.7 µM and the “Inverse agonist behavior on HCN1 gating (in words)” value (“Inverse agonist behavior” for short) (murine HCN1 channels) was “partial inverse agonist”.
With `CC(C)(C)C1CCCC(C(C)(C)C)C1O` (stereo not drawn) [DTB-CH, 2,6-di-tert-butyl cycloxhexanol] the “Fold Change of closed state association constant, phenol vs cyclohexanol” value (HCN1 channels [2]) was 5.4, the “Fold Change of open state association constant, phenol vs cyclohexanol” value (HCN1 channels [2]) was 1.8 and the “Association constant to closed channels (KC, QC, JC)” value (HCN1 channels [2]) was 4.6 ± 2.0. For the same molecule, the “Association constant to open channels (KO, QO, JO)” value (HCN1 channels [2]) was 3.1 ± 1.5, the “Behavior in the presence of 3 μM DTB-P (in words)” value (HCN1 channels [3]) was “partial inverse agonists” and the ΔV1/2 max (murine HCN1 channels; [7]) was −9.9 ± 1.5 mV. The IC50 (murine HCN1 channels; Hill fit of ΔV1/2 vs concentration, all parameters free, mean ± SD) was 11.4 ± 4.2 µM and the “h (Hill coefficient)” value (murine HCN1 channels; Hill fit, mean ± SD) was 1.28 ± 0.47.
With `CCC(C)c1cccc(C(C)CC)c1O` (stereo not drawn) [DSB-P, 2,6-di-sec-butyl phenol] the “Jc^I closed state association constant” value (HCN1 channels [2]; common site model S=4, fit of data without and with 3 μM DTB-P, not scaled) was 3,696 ± 2,948 and the “Behavior in the presence of 3 μM DTB-P (in words)” value (HCN1 channels [3]) was “low affinity full inverse agonist”.
With `Cc1cccc(C)c1S` [DM-PT, 2,6-di-methyl phenyl-thiol] the “Inverse agonist behavior” value (murine HCN1 channels) was “clear inverse agonist activity”.
In the case of `CCc1cccc(CC)c1N=C=O` [DE-PIC, 2,6-diethyl phenyl-isocyanate], the “Inverse agonist behavior” value (murine HCN1 channels) is reported as “effective”.
In the case of `CC(C)(C)c1cccc(C(C)(C)C)c1O` [DTB-P, 2,6-di-tert-butyl phenol], the “Activity at GABAA receptors” value (GABAA receptors) is given as “minimal activity”, the “Effect on open channel probability (Po) of α3β glycine receptors” value (α3β glycine receptors) is given as “increases open channel probability” and the “Increase of solubility by 2-hydroxypropyl-β-cyclodextrin (HPβCD)” value [1] is given as no less than 200 fold. The Anti-hyperalgesia [4] was “mechanical and thermal anti-hyperalgesia”, the IC50 (murine HCN1 channels) was 4.8 ± 0.8 µM and the ΔV1/2 max (murine HCN1 channels; [7]) was −42.4 ± 2.8 mV. For the same molecule, the “h (Hill coefficient)” value (murine HCN1 channels; Hill fit, mean ± SD) was 0.97 ± 0.13 and the “Shift in the V1/2 of HCN1 gating” value (murine HCN1 channels; at the highest concentrations) was ~ −40 mV.
For `CC(C)c1cccc(C(C)C)c1F` [DIP-PF, 2,6-di-iso-propyl phenyl-fluorine], the IC50 (murine HCN1 channels) was 267 ± 24 µM, the “Destabilization of association on replacing OH with F” value (murine HCN1 channels; from observed IC50 ratio) was 2.3 kcal/mol and the “Destabilization of association on replacing OH with F” value (murine HCN1 channels; from partition-corrected IC50 ratio) was 4.5 kcal/mol. The “Shift in IC50 on replacing OH with F” value (murine HCN1 channels; ratio of observed aqueous IC50s of DIP-P and DIP-PF) was 46 fold and the “Shift in IC50 on replacing OH with F” value (murine HCN1 channels; ratio of partition-corrected IC50s of DIP-P and DIP-PF) was 1,870 fold.
In the case of `CC(C)c1cccc(C(C)C)c1O` [DIP-P, 2,6-di-iso-propyl phenol, reference compound], the “Increase of solubility by 2-hydroxypropyl-β-cyclodextrin (HPβCD)” value [1] is listed as no less than 200 fold, the Anti-hyperalgesia [4] is listed as “mechanical and thermal anti-hyperalgesia” and the “Direct effect on GIRKs” value [5] is listed as “no direct effect”. The “Behavior in the presence of 3 μM DTB-P (in words)” value (HCN1 channels [3]) was “second full inverse”, the “Effect on DAMGO-evoked currents generated by μOR-Gqi5 receptors” value [6] was “inhibit” and the “Shift in the V1/2 of HCN1 gating” value (murine HCN1 channels) was ~ −40 mV. For the same molecule, the “h (Hill coefficient)” value (murine HCN1 channels) was 0.85 ± 0.11, the ΔV1/2 max (murine HCN1 channels) was −39.8 ± 2.3 mV and the IC50 (murine HCN1 channels; IC50) was 5.8 ± 1.2 µM.
In the case of `CC1CCCC(C)C1O` (stereo not drawn) [DM-CH, 2,6-di-methyl cyclohexanol], the “IC50 (in words)” value (murine HCN1 channels) is reported as “ill-defined”.
For `CCC1CCCC(CC)C1O` (stereo not drawn) [DE-CH, 2,6-di-ethyl cyclohexanol], the “Behavior in the presence of 3 μM DTB-P (in words)” value (HCN1 channels [3]) was “neither additivity nor competition”, the IC50 (murine HCN1 channels) was 3000 ± 723 µM and the “Inverse agonist behavior” value (murine HCN1 channels) was “only weakly effective as an inverse agonist”. For the same molecule, the “IC50 (in words)” value (murine HCN1 channels) was “ill-defined”.
For `Cc1cccc(C)c1N=C=O` [DM-PIC, 2,6-di-methyl phenyl-isocyanate], the “Inverse agonist behavior” value (murine HCN1 channels) was “ineffective” and the “IC50 (in words)” value (murine HCN1 channels) was “ill-defined”.
In the case of `Cc1cccc(C)c1O` [DM-P, 2,6-di-methyl phenol], the “Inverse agonist behavior” value (murine HCN1 channels) is reported as “ineffective” and the “IC50 (in words)” value (murine HCN1 channels) is reported as “ill-defined”.
For `CCC(C)C1CCCC(C(C)CC)C1O` (stereo not drawn) [DSB-CH, 2,6-di-sec-butyl cyclohexanol], the “Association constant to closed channels (KC, QC, JC)” value (HCN1 channels [2]) was “no effect”, the “Association constant to open channels (KO, QO, JO)” value (HCN1 channels [2]) was “no effect” and the “IC50 (in words)” value (murine HCN1 channels) was “ill-defined”.
In the case of `CC(C)C1CCCC(C(C)C)C1O` (stereo not drawn) [DIP-CH, 2,6-di-iso-propyl cyclohexanol], the “Fold Change of closed state association constant, phenol vs cyclohexanol” value (HCN1 channels [2]) is reported as 3.8, the “Fold Change of open state association constant, phenol vs cyclohexanol” value (HCN1 channels [2]) is reported as 1.8 and the “Behavior in the presence of 3 μM DTB-P (in words)” value (HCN1 channels [3]) is reported as “partial inverse agonists”. For the same molecule, the IC50 (murine HCN1 channels) was 35 ± 21 µM, the ΔV1/2 max (murine HCN1 channels; [7]) was −18.9 ± 3.4 mV and the “h (Hill coefficient)” value (murine HCN1 channels; Hill fit, mean ± SD) was 0.76 ± 0.19.
